Laboratory results taken from publication PMC10728220, “Novel 3-(pyrazol-4-yl)-2-(1H-indole-3-carbonyl)acrylonitrile derivatives induce intrinsic and extrinsic apoptotic death mediated P53 in HCT116 colon carcinoma” (Scientific Reports, 2023).
In brackets after ≈: the same amount, converted by molar mass. Entries after “also recorded” stand apart in the source; their conditions may differ.

What was measured:
[1] = test system: HCT116 cells; experiment: DNA fragmentation, agarose gel electrophoresis; format: cell-based, human; details: HCT116, 6.76 µg/mL, 48 h, 2% agarose gel
Method: Both control and treated cells were incubated for 48h. Then cells of both two samples were harvested for DNA fragmentation measurements using a SIGMA DNA fragmentation imaging kit with catalogue number 06432344001. To verify the validity of the DNA of both control and cells treated with 6.76 µg/mL of chalcone 7f, we carried out the loading of all samples on 2% agarose gel containing 1 µg/mL ethidium bromide and visualized by ultraviolet transillumination.
The DNA gel electrophoresis laddering assay in the HCT116 cell line was performed according to the instructions of Yawata[87] with some modifications. Briefly, after 48 h of exposure of the HCT116 cancer cell line to compound 7f in Petri dishes (60 × 15 mm, Greiner), the cells were suspended in 1 ml of medium and then centrifuged at 900 rpm for 10 min. […] About 1 × 10^6 cells of HCT116 were treated with the IC50 value of compound 7f. Then, the treated cells were collected via trypsinization and washed with Dulbecco’s Phosphate Buffered Saline. Afterwards, the cells were treated with the lysis buffer (5 mM ethylenediaminetetraacetic acid (EDTA), 0.5% Triton X-100, 10 mM Tris (pH 7.4), and 150 mM NaCl) for 35 min on ice. […] At last, the fragmented DNA percentage was detected by performing gel electrophoresis using 2% agarose gel containing 0.1 μg/ml ethidium bromide (Supplementary File 1).

[2] = test system: p53; experiment: RT-PCR gene expression, p53, in HCT116; format: cell-based, human; details: HCT116, 6.76 µg/mL, 48 h, relative to untreated control
Method: (§1) In this current research, relative gene expression related to apoptosis should be studied well because they were very interesting to understand the effect of our selected compound on this important biological process. HCT116 cells were treated with chalcone 7f (6.76µg/mL) for 48 h, and then subjected to qPCR analysis regarding control samples. The effect of chalcone 7f on the expression level of (Bax, p53, Bcl2, and CDK4) genes was assessed using the qPCR technique. […] As indicated in this schematic diagram, the expression of apoptotic genes (Bax and P53) was enhanced by the effect of chalcone 7f to reach (3.662, and 5.435) respectively, relative to the control.
(§2) Total RNA was extracted from the compound 7f-treated HCT116 cells and the untreated cells using the RNA Purification Kit GeneJET (Thermo scientific, ON, Canada) 0.1 µg of the extracted RNA was reverse transcribed into complementary DNA (cDNA) using High-Capacity cDNA Reverse Transcription Kit (Thermo Scientific, ON, Canada). qPCR was done using Brilliant SYBR Green qPCR master mix (Applied Biosystems, San Francisco, CA, USA) in One Step Plus Real-Time PCR System (Applied Biosystems, San Francisco, CA, USA). […] The relative gene expression was determined using the 2^−ΔΔCt equation after normalization to the expression of β-actin (housekeeping gene) (Qiagen, CA, USA)(10 pmol/µL)[85], [86]. […]

[3] = test system: Bax; experiment: RT-PCR gene expression, Bax, in HCT116; format: cell-based, human; details: HCT116, 6.76 µg/mL, 48 h, relative to untreated control
Method: as §1, §2

[4] = test system: normal human skin melanocyte cell line (HFB4); experiment: Cytotoxic MTT assay, normal HFB4 cells; format: cell-based; details: 48 h treatment
Method: MTT protocol was performed to study the viability of cells after treatment with the tested compounds. The studied cell lines (A549 and HCT116) were cultured and grown in RPMI‐1640 media, while HFB4 cells were reserved in DMEM‐F12 media. Both media were supplemented with 10% FBS, 1% L‐glutamine, and 1% antibiotic–antimycotic mixture. The cell lines were grown at conditions of 37 °C and 5% CO2. 10 × 10^3 of A549, and HCT116 cells and the same count of normal melanocytes (HFB4) were cultured in a 96‐well plate. The selected cultured cells were kept at 37°C and 5% CO2 overnight. Then, the medium was discarded after 24 h of incubation, and 100 µL from different concentrations of the studied compounds dissolved in fresh medium without serum, with final concentrations of 100, 50, 25, 12.5, 6.25, 3.125, 1.56, and 0.78 µg/mL was added. The treated cells were then incubated for 48 h. After that, 50 µL of MTT was added into each well for 4 h for the formazan crystals to be formed. Finally, 200 µl of 10% sodium dodecyl sulphate (SDS) was added to each well, and plates were kept at room temperature overnight to allow the reaction to be stopped. The optical density at 575 nm was read using a microplate multi-well reader, and the percentage of cell viability was calculated. The dose–response curve was drawn to calculate the IC50 values for each compound using the prism GraphPad 5 program, [84]. 5 Fluorouracil, a commercial anticancer drug was used as a reference drug (positive control). Negative untreated cell control was used in this assay.

[5] = test system: Bcl2; experiment: RT-PCR gene expression, Bcl2, in HCT116; format: cell-based, human; details: HCT116, 6.76 µg/mL, 48 h, relative to untreated control
Method: as §1, §2

## N#C/C(=C\c1cn(-c2ccccc2)nc1-c1ccc([N+](=O)[O-])cc1)C(=O)c1c[nH]c2ccccc12 [Compound 7f, (E)-2-(1H-Indole-3-carbonyl)-3-(3-(4-nitrophenyl)-1-phenyl-1H-pyrazol-4-yl)acrylonitrile]
[1]
  effect on genomic DNA (DNA fragmentation): completely deteriorated the genomic DNA; also recorded: completely degraded the genomic DNA
[2]
  RT-PCR fold change p53: 5.435 fold
[3]
  RT-PCR fold change Bax: 3.662 fold
[4]
  IC50: 56.7 µg/mL (≈ 123 µM)
[5]
  RT-PCR fold change bcl2: 0.351 fold
